Experimental data from patent US20250325555A1, “Method of Treating Obesity with a Luteinizing Hormone Receptor Agonist” (ICAHN SCHOOL OF MEDICINE AT MOUNT SINAI, priority 2022, published 2025).

Assays:
[1] = system: organoids derived from 3T3-L1 cells; test: adipose organoids derived from 3T3-L1 cells, thickness of differentiating cell layer; assay type: cell-based, mouse; settings: exposed for 3 days, further differentiated 7 days
Protocol: (§1) In order to study the mechanism of LHCGR activation on body fat, 3T3.L1 pre-adipocytes and adipose organoids were used. Oil Red 0 staining can be used to mark lipid-containing vacuoles and quantify cell lipid content. […] The thickness of the “differentiating cell layer” was measured with QuPath-0.2.3.

[2] = system: C57BL/6 mice fed on high-fat diet; test: ORG 43553 in C57BL/6 mice on high-fat diet, 9 weeks (Example 6); assay type: in vivo, mouse; settings: 17 mg/kg subcutaneous
Protocol: In order to evaluate the effect of treatment with LHCGR agonist ORG 43553 on body fat in mice, 14-week-old C57BL/6 mice (25 mice/group) were treated with subcutaneous injections of vehicle or ORG 43553 (17 mg/kg), and fed on high-fat diet for 9 weeks.

[3] = target: T1, adipose LHCGR (Mus musculus, UniProt P30730); test: ERK1/2 phosphorylation in differentiated 3T3-L1 adipocytes (Western blot); assay type: cell-based
T1 construct: host or cells: differentiated 3T3-L1 adipocytes
T1 sequence (P30730 27-700): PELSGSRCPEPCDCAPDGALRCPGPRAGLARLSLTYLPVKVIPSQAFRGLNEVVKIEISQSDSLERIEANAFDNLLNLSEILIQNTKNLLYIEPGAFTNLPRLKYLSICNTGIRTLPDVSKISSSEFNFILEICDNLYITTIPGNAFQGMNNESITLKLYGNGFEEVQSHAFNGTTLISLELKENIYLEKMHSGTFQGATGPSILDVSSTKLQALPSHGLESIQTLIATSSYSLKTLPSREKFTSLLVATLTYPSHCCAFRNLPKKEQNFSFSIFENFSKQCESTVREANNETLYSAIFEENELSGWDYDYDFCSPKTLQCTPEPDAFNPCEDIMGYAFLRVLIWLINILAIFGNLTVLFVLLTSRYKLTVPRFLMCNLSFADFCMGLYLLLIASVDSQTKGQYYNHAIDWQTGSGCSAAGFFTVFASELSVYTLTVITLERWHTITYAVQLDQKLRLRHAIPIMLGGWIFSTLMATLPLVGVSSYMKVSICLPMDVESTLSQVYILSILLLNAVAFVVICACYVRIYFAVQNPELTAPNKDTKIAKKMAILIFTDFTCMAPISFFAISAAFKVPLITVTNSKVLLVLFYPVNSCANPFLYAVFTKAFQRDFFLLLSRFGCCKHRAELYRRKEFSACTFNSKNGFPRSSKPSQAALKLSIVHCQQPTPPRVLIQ
Excerpt: siRNA KNOCKDOWN: Lentiviral vectors expressing Lhcgr siRNA (ABM 2649609) or siControl (ABM LVP015-G) were used per manufacturer's recommendation.
WESTERN BLOTTING: Proteins were blotted with commercial antibodies (Cell Signaling, Phospho-ERK1/2, 9101S; ERK1/2, 4695S, 1:5000).

[4] = system: 3T3-L1 adipocytes; test: oxygen consumption rate (OCR) on Seahorse Xf96 Analyzer; assay type: cell-based, mouse; settings: pretreated for 1 hour
Protocol: (§2) 3T3-L1 adipocytes were thus pretreated with ORG 43553 for 1 hour before measuring oxygen consumption rate (OCR) on a Seahorse Xf96 Analyzer. […] ORG 43553 increased OCR at baseline and upon oligomycin exposure, indicating mitochondria proton leak—a surrogate for thermogenesis. To confirm increased energy expenditure in vivo, mice (N=6/group) on high-fat diet were acclimated to metabolic cages for 1 day, before being injected subcutaneously with ORG 43553 (17 mg/kg, blue line) or vehicle and monitored for 48 hours.

[5] = target: human LHCGR (Homo sapiens, UniProt P22888); settings: read-out: EC50, agonistic activity to human LHCGR; cited from earlier work
Chain of human LHCGR (P22888 27-699): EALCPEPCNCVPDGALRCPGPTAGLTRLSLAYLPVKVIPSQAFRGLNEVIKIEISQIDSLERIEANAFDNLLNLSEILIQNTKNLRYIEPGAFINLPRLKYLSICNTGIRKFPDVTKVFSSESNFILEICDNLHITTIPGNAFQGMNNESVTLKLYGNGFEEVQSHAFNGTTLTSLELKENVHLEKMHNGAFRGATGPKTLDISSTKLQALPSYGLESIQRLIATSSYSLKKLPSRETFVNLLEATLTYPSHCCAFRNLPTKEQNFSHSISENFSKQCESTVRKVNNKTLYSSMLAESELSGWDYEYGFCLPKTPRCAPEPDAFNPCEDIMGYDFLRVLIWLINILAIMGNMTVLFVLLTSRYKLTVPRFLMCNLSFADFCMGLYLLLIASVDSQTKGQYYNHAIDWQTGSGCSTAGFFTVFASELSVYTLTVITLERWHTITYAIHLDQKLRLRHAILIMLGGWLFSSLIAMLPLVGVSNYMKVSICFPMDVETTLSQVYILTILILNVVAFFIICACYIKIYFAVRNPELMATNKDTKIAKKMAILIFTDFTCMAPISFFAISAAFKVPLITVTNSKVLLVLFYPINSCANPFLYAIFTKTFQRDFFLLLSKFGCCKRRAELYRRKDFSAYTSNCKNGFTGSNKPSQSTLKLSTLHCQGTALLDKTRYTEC

[6] = system: 3T3-L1 adipocytes; test: oil droplet accumulation (Oil Red O staining) in 3T3-L1 adipocytes; assay type: cell-based, mouse; settings: 6 nM, 12 hours
Protocol: as §1

[7] = system: male C57BL/6 mice; test: ORG 43553 in male C57BL/6 mice, 9 weeks (Example 8, incl. replication cohort); assay type: in vivo, mouse
Protocol: Next, the LHCGR agonist ORG 43553 was injected into male C57BL/6 mice (N=24/group) (17 mg/kg, subcutaneous, twice-a-week) for 9 weeks.

[8] = system: mice on high-fat diet; test: metabolic cages, mice on high-fat diet; assay type: in vivo, mouse; settings: 17 mg/kg subcutaneous, monitored for 48 hours
Protocol: as §2

[9] = 17 mg/kg subcutaneous twice-a-week, 9 weeks

SMILES: CSc1nc(-c2cccc(NC(=O)CN3CCOCC3)c2)c2c(N)c(C(=O)NC(C)(C)C)sc2n1 [ORG 43553, 5-amino-2-methylsulfanyl-4-[3-(2-morpholin-4-yl-acetylamino)-phenyl]-thieno[2,3-d]pyrimidine-6-carboxylic acid tert-butylamide]
- differentiated layer of organoids (thickness) compared to vehicle-treated organoids [1]: substantial reduction
- diet-induced fat mass [2]: reduced
- gWAT weight [2]: lower
- iWAT weight [2]: lower
- lean mass [2]: but not lean mass
- mWAT weight [2]: lower
- total mass [2]: reduced
- ERK1/2 phosphorylation ([3]; differentiated 3T3-L1 adipocytes): rapidly induced ERK1/2 phosphorylation in a concentration-dependent manner
- ERK1/2 phosphorylation with LHCGR siRNA knockdown ([3]; siLhcgr 3T3-L1 cells): no signal
- oxygen consumption rate (OCR) at baseline [4]: increased
- oxygen consumption rate (OCR) upon oligomycin exposure [4]: increased
- EC50 [5]: 3.7 nM
- oil droplet accumulation (Oil Red O staining) [6]: reduced oil droplet accumulation
- fat mass [7, 9]: significant reduction
- gWAT [7, 9]: reduced
- iWAT [7, 9]: reduced
- number of adipocytes in iWAT with areas below 4000 μm^2 [7, 9]: greater numbers
- number of adipocytes in iWAT with areas greater than 4000 μm^2 [7, 9]: fewer
- renal WAT (rWAT) [7, 9]: reduced
- fat mass ([7]; replication cohort): significant reduction
- gWAT ([7]; replication cohort): reduced
- iWAT ([7]; replication cohort): reduced
- mWAT ([7]; replication cohort): reduced
- total mass ([7]; replication cohort): significant reduction
- energy expenditure (EE) [8]: increased acutely
- oxygen consumption (VO2) [8]: increased acutely
